“And” between values parts separate entries of the source, which are not always exact repeats. Equal entries are not always repeated. “Also recorded” adds a separate entry of the source.
What was measured:
DBA/1 mice [1] = assay: NSAID inhibition of oral tolerance induction to collagen II; arthritic joints scored; type: in vivo
Experimental: To determine whether tolerance induction to orally fed bovine CII in DBA/1 mice would be abrogated by orally fed NSAID, 3 groups of 20-22 DBA/1 mice were fed (by gavage) eight doses (Monday, Tuesday, Thursday, and Friday for 2 weeks) of the following: Placebo (saline) in the a.m. and Placebo (0.1 M HAc) in the p.m.; Placebo (saline) in the a.m. and 10 μg native bovine CII in the p.m.; or piroxicam (2.4 μg/gm) in the a.m. and native bovine CII (10 μg) in the p.m. After 1 week, all mice were immunized (intradermally at the base of tail) with 100 μg of bovine CII emulsified in complete Freund's adjuvant. Animals were placed in coded cages and were scored by a blinded observer twice weekly for the number of arthritic joints (joints swollen, red, and/or deformed).

DBA/1 mice [2] = assay: Persistent NSAID effect on oral tolerance; arthritic joints after late CII immunization; type: in vivo; conditions: FIG. 10
Experimental: To determine whether chronic feeding of piroxicam with CII would have a persistent effect on tolerance induction to CII in DBA/1 mice, three groups of 10-11 DBA/1 mice were fed 8 doses of CII over two weeks (as above) on two occasions separated by 6 months: piroxicam (2.4 μg/gm) a.m. and Placebo (0.1M HAc, 100 μl) p.m.; Placebo (saline) a.m. and native bovine CII (10 μg) p.m; or piroxicam (2.4 μg/gm) a.m. and native bovine CII (10 μg) p.m. Three months after the second 8 dose feeding, each mouse was immunized (intradermally at base of tail) with 100 μg native bovine CII emulsified in complete Freund's adjuvant. Mice were placed in coded cages and scored twice weekly by a blinded observer for numbers of arthritic joints.

[3] = test system: mesenteric lymph node cells; assay: Mesenteric lymph node cell proliferation with α1(II) CB peptide mixture; type: in vivo, mice; conditions: FIG. 12
spleen cells = assay: IFNγ production by spleen cells of fed, CII-immunized mice cultured with α1(II) CB peptide mixture (ELISA); type: in vivo; conditions: FIG. 8
Source text: To assess the effect of oral feeding of piroxicam to another group of mice fed Placebo or CII on spleen cell IFNγ production in a manner similar to the experiment in FIG. 7, four groups of mice (4 mice per group) were gavaged 8 days over 2 weeks with the following: Piroxicam a.m.—CII p.m.; Piroxicam a.m.—HAc p.m.; Saline a.m.—CII p.m.; or Saline a.m.—HAc p.m. After 1 week rest, all mice were immunized at the base of the tail with a CII—complete Freund's adjuvant emulsion. After 14 days, mice ere sacrificed, and spleen cells were isolated and set up in culture with PBS or α1(II)CB peptide mixture. After 72 h culture, harvested supernatants ere analyzed for IFNγ levels by ELISA.

Peyer's patch cells = assay: Peyer's patch cell / normal spleen cell co-culture proliferation with α1(II) CB peptide mixture (3H thymidine); type: in vivo; conditions: cells from mice fed piroxicam plus CII vs CII alone or piroxicam alone; p<0.03; FIG. 11
Experimental: To assess the status of the GALT in these three groups of mice, Peyer's patch cells were isolated from each animal, and set up (2.5×10^5/ml) in quadruplicate in co-culture with normal DBA/1 spleen cells (2×10^6/ml) with addition of recombinant murine IL2 (10 U/ml). PBS (as a control) or 50 μg/ml bovine α1(II) CB peptide mixture were added to quadruplicate wells in 96 round bottom well plates. After 3 days, cultures were pulsed with ^3H thymidine and harvested onto paper filters 24 h later. The “stimulation index” was calculated for each mouse by dividing the cpm of α1(II) CB peptide mixture culture by the cpm of the PBS control culture for each mouse. […] Thus, the marked increase in the stimulation index of Peyer's patch cells with DBA/1 spleen cells in the presence of α1(II) CB peptide mixture is quite exceptional and unexpected.

[4] = Phase II oral CI tolerance clinical trial in SSc; change in MRSS; type: in vivo, human; conditions: CI treated vs placebo treated completers, Late Phase ROT1AA patients deleted; Wilcoxon Rank Sum test; FIG. 16
Source text: In the Phase II oral CI tolerance clinical trial at 12 months, 79 SSc patients were genotyped of the 168 enrolled in the clinical trial. Seven of the 23 ROT1AA genotype were in the Late Phase category, and deleted from the results.

PBMC = assay: Oral type I collagen in SSc patients; change in IL-10 production by antigen-stimulated PBMC; type: in vivo, human
Experimental: Samples from 26 patients from a trial of oral type I collagen (CI) in patients with diffuse systemic sclerosis (SSc) who took 500 μg/day CI for 12 months were collected. […] No patients were on DMARDs, biologies, NSAIDS or prednisone.
Patients with ROT1 AA, GG or GA genotype had IL-10 measured of IL-PBMC cultures stimulated by α1(I) CB mixture, α2(I) CB mixture, or native CI after receiving oral CI for 12 months minus the values of IL-10 in the supernatants of PBMC cultures stimulated with the same antigens at baseline before oral CI was administered to the SSc patients.

[5] = group mean, Genotype AA (N = 6)
[6] = individual SSc patients, Genotype AA, after 12 months oral CI 500 μg/day minus baseline
[7] = individual SSc patients, Genotype GG or GA, after 12 months oral CI 500 μg/day minus baseline
[8] = patients with ROT1 AA genotype, oral bovine CI 500 ug/day for 12 months

CN1C(C(=O)Nc2ccccn2)=C(O)c2ccccc2S1(=O)=O [piroxicam]
oral tolerance (OT) induction (DBA/1 mice [1]; DBA/1 mice fed CII, FIG. 7 / similar studies (data not shown)): abrogation of certain forms of oral tolerance
arthritic joints (DBA/1 mice [1]; piroxicam 2.4 μg/gm a.m. + CII 10 μg p.m., eight doses, FIG. 7): significantly more arthritic joints
oral tolerance (DBA/1 mice [2]): persistent abrogation of oral tolerance
arthritic joints at week 7 and 8 after immunization (DBA/1 mice [2]; fed piroxicam plus CII 9 and 3 months before vs Placebo plus CII, p<0.04 at 8 weeks): significantly more arthritic joints
proliferation in response to α1(II) CB peptide mixture ([3]; mice fed either CII or piroxicam alone): did not proliferate
stimulation by α1(II) CB peptide mixture ([3]; mice fed piroxicam plus CII): marked stimulation
IFNγ production by spleen cells cultured with α1(II) CB peptide mixture (spleen cells; fed with Placebo (alone)): reduced production of IFNγ
IFNγ production by spleen cells stimulated with α1(II) CB peptide mixture (spleen cells; piroxicam orally fed to mice being fed oral CII): dramatic increase
stimulation by α1(II) CB peptide mixture (stimulation index) (Peyer's patch cells): marked stimulation

type I collagen [CI]
change in MRSS at 12 months from baseline values [4]: significant difference
IL-10 production change, Bovine Native CI (PBMC; [5]): -825 ± 338 pg/mL
IL-10 production change, Bovine α1(I) CB Mix (PBMC; [5]): -622 ± 480 pg/mL
IL-10 production change, Bovine α2(I) CB Mix (PBMC; [5]): -975 ± 627 pg/mL
IL-10 production change, Bovine α1(I) CB Mix (PBMC; group mean, Genotype GG or GA): 30 ± 119 pg/mL
IL-10 production change, Bovine α2(I) CB Mix (PBMC; group mean, Genotype GG or GA): 22 ± 156 pg/mL
IL-10 production change, Bovine Native CI (PBMC; group mean, Genotype GG or GA (BB or BA)): 27 ± 97 pg/mL
IL-10 production change, Bovine Native CI (PBMC; [6]): −1726 pg/ml and +70 pg/ml and −920 pg/ml and −233 pg/ml and −1886 pg/ml and −253 pg/ml
IL-10 production change, Bovine α1(I) CB Mix (PBMC; [6]): −342 pg/ml and −19 pg/ml and −611 pg/ml and −112 pg/ml and −2942 pg/ml and +295 pg/ml
IL-10 production change, Bovine α2(I) CB Mix (PBMC; [6]): −1692 pg/ml and +28 pg/ml and −494 pg/ml and +490 pg/ml and −3736 pg/ml and −448 pg/ml
IL-10 production change, Bovine Native CI (PBMC; [7]): −135 pg/ml and +566 pg/ml and −334 pg/ml and +192 pg/ml (2×) and +103 pg/ml and +386 pg/ml and −1564 pg/ml and +233 pg/ml and +21 pg/ml and +237 pg/ml and +150 pg/ml and −94 pg/ml and +32 pg/ml and −282 pg/ml and +232 pg/ml and −52 pg/ml and +43 pg/ml and +269 pg/ml and +341 pg/ml
IL-10 production change, Bovine α1(I) CB Mix (PBMC; [7]): −314 pg/ml and +410 pg/ml and −104 pg/ml and −391 pg/ml and +529 pg/ml and +216 pg/ml and −968 pg/ml and +347 pg/ml and −397 pg/ml and +1364 pg/ml and +108 pg/ml and −205 pg/ml and −81 pg/ml and −561 pg/ml and +582 pg/ml and −46 pg/ml and −538 pg/ml and −227 pg/ml and +663 pg/ml and +221 pg/ml
IL-10 production change, Bovine α2(I) CB Mix (PBMC; [7]): −388 pg/ml and +203 pg/ml and −86 pg/ml and −180 pg/ml and +859 pg/ml and +546 pg/ml and −1000 pg/ml and +261 pg/ml and −2021 pg/ml and +1460 pg/ml and +145 pg/ml and −113 pg/ml and +141 pg/ml (2×) and −509 pg/ml and +5 pg/ml and +381 pg/ml and +252 pg/ml and −115 pg/ml and −415 pg/ml
IL-10 production by PBMC cultured with native bovine CI and α2(I) CB mixture (PBMC; [8]): did not upregulate IL-10 production; also recorded: deficient upregulation of IL-10 production
IL-10 production by PBMC cultured with α1(I) CB mixture (PBMC; [8]): trend toward defective production
